We go through twelve molecules from US12239643B2, “Therapeutic agent for inflammatory diseases, autoimmune diseases, fibrotic diseases, and cancer diseases” (MEIJI SEIKA PHARMA CO., LTD., priority 2018, dated 2025).

Where two headings read alike, the source gives them in different places. Where only a bound is given, the exact number is not on record here.

Series [1] relates to TGF-β. Nature of the series: TGF-β inhibitory activity using THP1 cells differentiated into macrophages. In kind it is cell-based. Conditions: Homo sapiens, THP-1; THP1 cells differentiated into macrophages, lipopolysaccharide 1 μg/mL, about 7 hours; read-out: TFG-β Inhibitory Activity (Test Example 6). The procedure:
The TGF-β inhibitory activity was measured using THP1 cells as follows. First, THP1 cells were seeded on a 24-well culture plate at […], and culture was carried out overnight at 37° C. and 5% CO2 in RPMI-1640 medium (containing 10% fetal bovine serum, penicillin, and streptomycin) supplemented with 100 nM phorbol myristate acetate. After that, the cells were differentiated into macrophages by changing to RPMI-1640 medium without phorbol myristate acetate, followed by further culture at 37° C. under 5% CO2 overnight. Next, the THP1 culture plate was washed once with PBS(−) 1 mL/well, and then the test compound and lipopolysaccharide (final concentration 1 μg/mL) were added, followed by culture at 37° C. under 5% CO2 for about 7 hours. After culturing, the entire amount of the medium was collected, and the amount of TGF-β in the centrifuged supernatant was quantified by the sandwich ELISA method. The non-addition of lipopolysaccharide was used as a blank, and the control was obtained by adding only dimethyl sulfoxide instead of the test compound, and the inhibition rate of the test compound against the control was calculated by the following formula. Inhibition Rate (%)={1−(Value at Addition of Each Test Compound−Blank Value)/(Control Value−Blank Value)}×100
In addition, the TGF-β inhibitory activity (concentration for the inhibition rate of 50%) of the test compound was calculated from the inhibition curves based on the inhibition rate for various concentrations of the test compound.
The measurement results obtained by measuring the TFG-β inhibitory activity (50% inhibitory concentration) of the test compounds by the above method were evaluated in accordance with the following evaluated basis; A: less than 1 μM, and B: 1 μM or more.

Series [2] deals with PDE4. Nature of the series: Evaluation of PDE4 inhibitory activity, scintillation proximity assay. In kind it is biochemical. Conditions: for PDE4 inhibitory activity: summary in words of Tables 57 to 69. In short, it runs like this:
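IC50 was derived from inhibition curves, referenced to an enzyme-free blank and a DMSO-only control. Compound, PDE4 preparation and tritiated cAMP reacted 120 min at RT in Tris-HCl buffer (pH 7.4) with MgCl2, EGTA and BSA; YSi-SPA beads with ZnSO4 bound product before scintillation counting.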
On the technique in general: In a scintillation proximity assay essentially only radioactivity close to the scintillant gives light.

In series [3] the test system is oxazolone-induced auricle edema, BALB/c mice. Nature of the series: Hapten repeated application mouse chronic dermatitis model (oral, topical). It is filed as in vivo. The settings on record: oral, 0.3 to 10 mg/kg twice a day for 10 days. The protocol:
Evaluation was carried out using female BALB/c mice (7 to 8 weeks of age). First, the hair of the abdomen of the mice was treated with a hair clipper, and then 150 μL of a 3% oxazolone acetone/ethanol solution was applied to the abdomen as a hapten. One week later, 20 μL/ear of 1% oxazolone acetone/ethanol solution was applied to the outer surface of the auricle of both ears of the mice 3 times/week to induce inflammation. A 1% oxazolone-acetone/ethanol solution was applied every other day for 10 days from 1 week after the start of inflammation induction. In addition, for 10 days from 1 week after the start of inflammation induction, the test compound suspended in 0.5% w/v methylcellulose (0.5% MC) was orally administered at 0.3 to 10 mg/kg twice a day (10 μL/g), or 20 μL of a 0.3 to 3% test compound dissolved in an acetone/ethanol solution was applied once or twice a day (topical administration). A 1% oxazolone was not applied to the blank. The control was one in which 1% oxazolone was applied and only 0.5% MC was orally administered without using the test compound, or only an acetone/ethanol solution was applied.
After administration for 10 days, auricle thickness was measured using a dial thickness gauge, and the changes in auricular thickness before the treatment (immediately before the start of administration of the test compound) and after the treatment (after the administration of the test compound for 10 days) were used to calculate the edema suppression rate by the following formula. Edema Suppression Rate (%)={1−(Auricle Thickness After Treatment by Test Compound−Auricle Thickness Before Treatment by Test Compound)/(Auricle Thickness After Treatment of Control−Auricle Thickness Before Treatment of Control)}×100
The measurement results obtained by measuring the edema suppression rate at the time of oral administration of each test compound by the above method were evaluated in accordance with the following evaluated basis; A: 70% or more, B: 40% or more and less than 70%, and C: less than 40%. In addition, the measurement results obtained by measuring the edema suppression rate at the time of topical administration of each test compound were evaluated in accordance with the following evaluated basis; A: 100% or more, B: 70% or more and less than 100%, and C: less than 70%.

Series [4] is described as follows: Hepatic metabolic stability (rat liver microsome method). In kind it is in vitro ADME. Conditions: rat liver microsomes 0.5 mg/mL, test substance 1 μM, NADPH 1 mM, 37° C., 30 minutes. In short, it runs like this:
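Scored by % parent left after 30 min (30 min/0 min ×100, LC-MS), banded A ≥75%, B 60–<75%, C 45–<60%, D <45%. Incubation: 1 μM compound, 0.5 mg/mL rat microsomes, pH 7.4 phosphate buffer, 37° C, 5 min preincubation, NADPH 1 mM started, acetonitrile quench.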

The mark [5] stands for this setting: finer grading of compounds rated A in Evaluation 1, read-out: PDE4 Inhibitory Activity (Evaluation 2).
[6] abbreviates: scintillation proximity assay, class symbols of Evaluation 1, read-out: PDE4 Inhibitory Activity (concentration for the inhibition rate of 50%, IC50), Evaluation 1.
The mark [7] stands for this setting: scintillation proximity assay, read-out: PDE4 Inhibitory Activity (Evaluation 1; concentration for the inhibition rate of 50%).

Take `CC(C)(O)c1cc(-c2nccs2)c2oc(N3CC4CCC(C3)N4)nc2c1C(F)(F)F` [Example 177, 2-(2-(3,8-Diazabicyclo[3.2.1]octan-3-yl)-7-(thiazol-2-yl)-4-(trifluoromethyl)benzo[d]oxazol-5-yl)propan-2-ol]: the IC50 in series [1] is < 1000 nM; in series [2] (setting [5]), 1 to 11 nM; in series [2] (setting [6]), < 100 nM. Also, in series [2], the PDE4 inhibitory activity entry is “particularly excellent”.
Turning to `COC(C)(C)c1cc(-c2nccs2)c2oc(N3CC4CC(C3)N4)nc2c1OC(F)(F)F` [Example 199, 2-(3,6-Diazabicyclo[3.1.1]heptan-3-yl)-5-(2-methoxypropan-2-yl)-7-(thiazol-2-yl)-4-(trifluoromethoxy)benzo[d]oxazole], the IC50 was < 1000 nM in series [1], 1 to 11 nM in series [2] (setting [5]) and < 100 nM in series [2] (setting [7]). In addition, in series [3], the “Mouse Chronic Dermatitis Model (Test Example 8), Oral: edema suppression rate” value (shortened to “Mouse Chronic Dermatitis Model”) was “B (B: 40% or more and less than 70%)”. Moreover, the PDE4 inhibitory activity entry in series [2] is “particularly excellent”.
For `COc1ccc(-c2nccs2)c2oc(N3CC4CCC(C3)N4)nc12` [Example 75, 2-(3,8-Diazabicyclo[3.2.1]octan-3-yl)-4-methoxy-7-(thiazol-2-yl)benzo[d]oxazole], the IC50 in series [1] is < 1000 nM; in series [2] (setting [5]), 1 to 11 nM; in series [2] (setting [6]), < 100 nM. In addition, in series [2], the PDE4 inhibitory activity result is recorded as “particularly excellent”.
As to `FC(F)(F)c1ccc(-c2nccs2)c2oc(N3CC4CC(C3)N4)nc12` [Example 32, 2-(3,6-Diazabicyclo[3.1.1]heptan-3-yl)-7-(thiazol-2-yl)-4-(trifluoromethyl)benzo[d]oxazole], the IC50 in series [1] is < 1000 nM; in series [2] (setting [5]), 1 to 11 nM; in series [2] (setting [6]) it was < 100 nM. The PDE4 inhibitory activity result in series [2] is listed as “particularly excellent”.
As for `OC(c1ccc(-c2nccs2)c2oc(N3CC4CC(C3)N4)nc12)C(F)(F)F` (stereo not shown) [Example 120, 1-(2-(3,6-Diazabicyclo[3.1.1]heptan-3-yl)-7-(thiazol-2-yl)benzo[d]oxazol-4-yl)-2,2,2-trifluoroethan-1-ol], the IC50 was < 1000 nM in series [1], 1 to 11 nM in series [2] (setting [5]) and < 100 nM in series [2] (setting [6]). For the same molecule, the “Mouse Chronic Dermatitis Model” value in series [3] was “B (B: 40% or more and less than 70%)”. Besides, the PDE4 inhibitory activity entry in series [2] is “particularly excellent”.
Turning to `FC(F)(F)Oc1c(Cl)cc(-c2nccs2)c2oc(N3CC4CC(C3)N4)nc12` [Example 3, 2-(3,6-Diazabicyclo[3.1.1]heptan-3-yl)-5-chloro-7-(thiazol-2-yl)-4-(trifluoromethoxy)benzo[d]oxazole], the IC50 is < 1000 nM in series [1], ≤ 1 nM in series [2] (setting [5]) and < 100 nM in series [2] (setting [6]). For the same molecule, in series [4], the “Residual ratio (% remaining for 30-minute reaction)” value is “B (B: 60% or more and less than 75%)”. The PDE4 inhibitory activity entry in series [2] was “particularly excellent”.
As to `FC(F)(F)Oc1c(Cl)cc(-c2nccs2)c2oc(N3CC4COCC(C3)N4)nc12` [Example 4, 7-(5-Chloro-7-(thiazol-2-yl)-4-(trifluoromethoxy)benzo[d]oxazol-2-yl)-3-oxa-7,9-diazabicyclo[3.3.1]nonane], the figures for the IC50 in series [1], in series [2] (setting [5]) and in series [2] (setting [6]) were < 1000 nM, 1 to 11 nM and < 100 nM, respectively. In series [2], the PDE4 inhibitory activity result was “particularly excellent”.
For `CC(O)(c1ccc(-c2nccs2)c2oc(N3CC4CC(C3)N4)nc12)C(F)(F)F` (stereo not shown) [Example 234, 2-(2-(3,6-Diazabicyclo[3.1.1]heptan-3-yl)-7-(thiazol-2-yl)benzo[d]oxazol-4-yl)-1,1,1-trifluoropropan-2-ol], the “Mouse Chronic Dermatitis Model” value in series [3] is reported as “A (A: 70% or more)”. In addition, the values for the IC50 in series [2] (setting [5]) and in series [2] (setting [7]) were ≤ 1 nM and < 100 nM, respectively. For the same molecule, the PDE4 inhibitory activity result in series [2] is “particularly excellent”.
Take `CC(=O)c1cc(-c2nccs2)c2oc(N3CC4CC(C3)N4)nc2c1OC(F)(F)F` [Example 212, 1-(2-(3,6-Diazabicyclo[3.1.1]heptan-3-yl)-7-(thiazol-2-yl)-4-(trifluoromethoxy)benzo[d]oxazol-5-yl)ethan-1-one]: the “Mouse Chronic Dermatitis Model” value in series [3] was “B (B: 40% or more and less than 70%)”. Further, the IC50 in series [2] (setting [5]) is ≤ 1 nM; in series [2] (setting [7]), < 100 nM. The PDE4 inhibitory activity entry in series [2] was “particularly excellent”.
Turning to `Cc1ccc(-c2nccs2)c2oc(N3CC4CCC(C3)N4)nc12` [Example 25, 2-(3,8-Diazabicyclo[3.2.1]octan-3-yl)-4-methyl-7-(thiazol-2-yl)benzo[d]oxazole], the IC50 was < 1000 nM in series [1], ≤ 1 nM in series [2] (setting [5]) and < 100 nM in series [2] (setting [6]). Besides, the PDE4 inhibitory activity entry in series [2] is “particularly excellent”.
Regarding `FC(F)(F)Oc1ccc(-c2nccs2)c2oc(N3CC4CCCC(C3)N4)nc12` [Example 30, 2-(3,9-Diazabicyclo[3.3.1]nonan-3-yl)-7-(thiazol-2-yl)-4-(trifluoromethoxy)benzo[d]oxazole], the IC50 in series [1] is < 1000 nM; in series [2] (setting [5]), ≤ 1 nM; in series [2] (setting [6]) it was < 100 nM. In addition, the PDE4 inhibitory activity result in series [2] is reported as “particularly excellent”.
Regarding `CC(O)c1cc(-c2nccs2)c2oc(N3CC4CC(C3)N4)nc2c1OC(F)(F)F` (stereo not shown) [Example 203, 1-(2-(3,6-Diazabicyclo[3.1.1]heptan-3-yl)-7-(thiazol-2-yl)-4-(trifluoromethoxy)benzo[d]oxazol-5-yl)ethan-1-ol], the IC50 is < 1000 nM in series [1], 1 to 11 nM in series [2] (setting [5]) and < 100 nM in series [2] (setting [7]). Besides, in series [3], the “Mouse Chronic Dermatitis Model” value is “B (B: 40% or more and less than 70%)”. The PDE4 inhibitory activity result in series [2] was “particularly excellent”.
